*1 amine or outer side, *2 acyl side, *3 side chain or, on linkers, in order; H or OH if unused. Where a SMILES comes first, the peptide text is derived from it. [ ]: non-standard residue; d: D form. X1 = CC(C)C[C@H](N[*:1])[C@@H](O)C[C@H](C(=O)[*:2])C(C)C
Target: Beta-secretase 1 (Homo sapiens, UniProt P56817)
Sequence (P56817 whole entry): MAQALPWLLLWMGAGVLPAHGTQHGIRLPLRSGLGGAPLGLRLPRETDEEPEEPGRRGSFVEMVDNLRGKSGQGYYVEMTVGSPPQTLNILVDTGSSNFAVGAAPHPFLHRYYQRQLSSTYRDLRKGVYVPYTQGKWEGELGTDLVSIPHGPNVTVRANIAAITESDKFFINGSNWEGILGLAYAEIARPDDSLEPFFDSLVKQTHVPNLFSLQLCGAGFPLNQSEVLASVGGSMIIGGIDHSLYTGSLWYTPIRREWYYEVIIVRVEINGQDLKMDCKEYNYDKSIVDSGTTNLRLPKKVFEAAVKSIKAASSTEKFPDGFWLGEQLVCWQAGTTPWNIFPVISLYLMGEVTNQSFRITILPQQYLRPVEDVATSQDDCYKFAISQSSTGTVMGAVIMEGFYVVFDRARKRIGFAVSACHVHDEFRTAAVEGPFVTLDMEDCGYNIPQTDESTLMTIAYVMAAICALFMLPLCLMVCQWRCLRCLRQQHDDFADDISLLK

Row | Compound | IC50 [nM]
1 | CCC(C)[C@H](NC(=O)[C@@H](N)CCC(N)=O)C(=O)N[C@@H](CC(=O)O)C(=O)N[C@@H](CC(C)C)[C@@H](O)C[C@@H](C)C(=O)N[C@@H](C)C(=O)N[C@@H](CCC(=O)O)C(=O)N[C@@H](Cc1ccccc1)C(=O)O (single isomer, unassigned) | 45.5
2 | CC(C)C[C@H](NC(=O)[C@H](CC(N)=O)NC(=O)[C@@H](NC(=O)[C@@H](N)CCC(=O)O)C(C)C)[C@@H](O)C[C@H](C(=O)N[C@@H](C)C(=O)N[C@@H](CCC(=O)O)C(=O)N[C@@H](Cc1ccccc1)C(=O)O)C(C)C (H-EVN[X1]AEF-OH) | 165
